This is an account of results in article PMC7541927 (Preventive Nutrition and Food Science, 2020).

This assay concerns the target T1, α-amylase from porcine pancreas (Sus scrofa, UniProt P00690).
T1 sequence (P00690 16-511): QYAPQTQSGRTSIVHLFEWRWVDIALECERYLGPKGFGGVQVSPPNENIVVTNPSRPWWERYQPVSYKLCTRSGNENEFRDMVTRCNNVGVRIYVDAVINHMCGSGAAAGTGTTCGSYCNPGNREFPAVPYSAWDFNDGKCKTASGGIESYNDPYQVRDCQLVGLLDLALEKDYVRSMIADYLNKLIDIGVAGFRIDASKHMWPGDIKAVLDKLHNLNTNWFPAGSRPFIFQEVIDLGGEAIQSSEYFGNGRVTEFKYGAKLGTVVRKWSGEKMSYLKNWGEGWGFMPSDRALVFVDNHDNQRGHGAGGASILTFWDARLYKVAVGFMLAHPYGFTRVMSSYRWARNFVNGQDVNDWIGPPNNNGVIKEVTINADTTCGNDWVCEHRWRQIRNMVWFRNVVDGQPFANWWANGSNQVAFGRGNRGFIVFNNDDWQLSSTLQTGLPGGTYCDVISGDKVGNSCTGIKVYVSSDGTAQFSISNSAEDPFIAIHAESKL
The assay is described as follows: biochemical.

A word on the IC50: it is the concentration that gives 50% inhibition. Lower therefore signals greater potency in that assay. As for `O=C(O)CC(O)(CC(=O)O)C(=O)O` [citric acid], the IC50 worked out at 640 ± 40 µM.
